Test results as given in patent US20230106836A1, “METHOD OF USING BIOSURFACTANT-PRODUCING BACTERIA AGAINST FUNGAL AND BACTERIAL PATHOGENS” (THE ROYAL INSTITUTION FOR THE ADVANCEMENT OF …, priority 2020, published 2023).

Columns and labels:
[1] = system: E. coli; experiment: Diffusion plate assay of TLC fractions, organic acids and bleach; type: cell-based, Escherichia coli; settings: organic acids 1%, bleach 1.3%
Protocol: (§1) Bacterial cells were removed by centrifugation (5000×g at 4° C.) and the cell—free supernatant (CFS) was acidified to pH 2.0 with 2N HCL at 4° C. for 16 h resulting in a precipitate that was collected by centrifugation (5000×g for 10 min at 4° C.). The acid precipitate fraction (APF) was dissolved in water (100 mg/mL) and adjusted to pH 7.0 using 1N NaOH. The CFS sample and clean BHM culture medium were concentrated by freeze-drying for 48 h. All samples were stored at −80° C. until further use.
(§2) Separation of CFS and APF fractions was performed by thin layer chromatography (TLC). Acid-cleaned glass plates (20×20 cm) were coated with a thin layer of silica emulsion (160 grams of silica with 15% (w/v) calcium sulphate and with fluorescent indicator GF254 dissolved in 500 mL of double distilled water) purchased from Sigma-Aldrich and dried for 16-18 h at 22° C. Activation of silica plates was done by heating the TLC plates at 120° C. for 30 min prior to use. An amount of 100 mg of each of CFS and APF were dissolved in 400 μL of chloroform: methanol (2:1, v/v) and separated on activated TLC plates with chloroform: methanol: water (70:26:4) as the developing solvent system. Plates were observed under UV (λ=254 nm) and the retention factor (Rf) values were calculated as distance travelled by the samples over the distance travelled by solvent. Only APF separated fractions were used for bioactivity assays. Bands corresponding to the desired Rf values were scraped and collected for extraction. Bands of the same Rf value from different plates were pooled together and extracted twice with chloroform: methanol (v/v/; 2:1). The collected fractions were vacuum-concentrated for 4-6 h at −60° C. using a Speed Vac™ v78100 (Labconco Corp, Kansas City Mo., USA), re-dissolved in 50 μL of methanol and tested against target bacteria and fungi, as well as for biosurfactant activity. Methanol (50 μL) was used as a negative control.
(§3) The biosurfactant activity of the fractions was tested using the oil-spreading and the drop collapse methods, as described above. Fractions were also tested for their antimicrobial activities against a number of bacteria and fungi using the Burkholder diffusion plate method as noted above. Briefly, 10 μL of the dissolved fractions were spotted in the middle of the plates. Positive controls consisted of 10 μL of bleach and of each of the following organic acids: 1% (v/v) of acetic acid, formic acid, citric acid and lactic acid. […] Individual trials were performed in triplicate and the entire assay was repeated twice to confirm the findings.

[2] = system: X. campestris; experiment: as above; type: cell-based; settings: strain B07.007, Xanthomonas campestris; organic acids 1%, bleach 1.3%
Protocol: as §1, §2, §3

[3] = system: Salmonella enterica serovars; experiment: as above; type: cell-based; settings: organic acids 1%, bleach 1.3%
Protocol: as §1
as §2, with “Only APF separated fractions were used for bioactivity assays.” left out
as §3

[4] = system: Botrytis cinerea; experiment: Antimicrobial assay of TLC fractions against fungi; type: cell-based; settings: strain F014, Botrytis cinerea; organic acids 1%, bleach 1.3%
Protocol: as §1, §2, §3

[5] = system: Rhizoctonia solani; experiment: Antimicrobial assay of TLC fractions against fungi; type: cell-based; settings: organic acids 1%, bleach 1.3%
Protocol: as §1, §2, §3

[6] = strain AG1-1A (ROS-2A), R. solani
[7] = strain AG3 (114), Rhizoctonia solani

| SMILES | Microbial activity (clearing zone), fractions, organic acids and bleach ([1]; strain E3-6, Escherichia coli) | Microbial activity (clearing zone), fractions, organic acids and bleach ([1]; strain E10-6, E. coli) | Microbial activity (clearing zone), fractions, organic acids and bleach ([1]; strain E14-6, E. coli) | Microbial activity (clearing zone), fractions, organic acids and bleach ([1]; strain E15-6, E. coli) | Microbial activity (clearing zone), fractions, organic acids and bleach [2] | Microbial activity (clearing zone), fractions, organic acids and bleach ([3]; strain MAE14, S. enterica Typhimurium) | Microbial activity (clearing zone), fractions, organic acids and bleach ([3]; strain MAE299, S. enterica Typhimurium) | Microbial activity (clearing zone), fractions, organic acids and bleach ([3]; strain MAE775, S. enterica Typhimurium) | Microbial activity (clearing zone), fractions, organic acids and bleach ([3]; strain PARC#5, S. enterica Agona) | Microbial activity (clearing zone), fractions, organic acids and bleach ([3]; strain SCS2, S. enterica I: Rough-O: e, h: e, n) | Microbial activity (clearing zone), fractions, organic acids and bleach ([3]; strain SL1, S. enterica Newport) | Microbial activity (clearing zone), fractions, organic acids and bleach ([3]; strain SL2, S. enterica Hartford) | Microbial activity (clearing zone), fractions, organic acids and bleach ([3]; strain UMR1, Salmonella enterica Typhimurium) | Microbial activity (clearing zone), fractions, organic acids and bleach [4] | Microbial activity (clearing zone), fractions, organic acids and bleach [5, 6] | Microbial activity (clearing zone), fractions, organic acids and bleach [5, 7] |
| --- | --- | --- | --- | --- | --- | --- | --- | --- | --- | --- | --- | --- | --- | --- | --- | --- |
| CC(=O)O [AA] | ++ ((++) clearing zone of 4 mm) | ++ ((++) clearing zone of 4 mm) | ++ ((++) clearing zone of 4 mm) | ++ ((++) clearing zone of 4 mm) | +++ (clearing zone of 5 mm (+++)) | ++ ((++) clearing zone of 4 mm) | ++ ((++) clearing zone of 4 mm) | +++ (clearing zone of 5 mm (+++)) | ++ ((++) clearing zone of 4 mm) | ++ ((++) clearing zone of 4 mm) | ++ ((++) clearing zone of 4 mm) | ++ ((++) clearing zone of 4 mm) | ++ ((++) clearing zone of 4 mm) | ++ ((++) clearing zone of 4 mm) | ++ ((++) clearing zone of 4 mm) | ++ ((++) clearing zone of 4 mm) |
| O=C(O)CC(O)(CC(=O)O)C(=O)O [CA] | + ((+) clearing zone of 3 mm) | + ((+) clearing zone of 3 mm) | + ((+) clearing zone of 3 mm) | + ((+) clearing zone of 3 mm) | ++ ((++) clearing zone of 4 mm) |  |  |  |  |  |  |  |  | + ((+) clearing zone of 3 mm) | + ((+) clearing zone of 3 mm) | + ((+) clearing zone of 3 mm) |
| CC(O)C(=O)O (stereo not shown) [LA] | + ((+) clearing zone of 3 mm) | + ((+) clearing zone of 3 mm) | + ((+) clearing zone of 3 mm) | + ((+) clearing zone of 3 mm) | ++ ((++) clearing zone of 4 mm) |  |  |  |  |  |  |  |  | + ((+) clearing zone of 3 mm) | + ((+) clearing zone of 3 mm) | + ((+) clearing zone of 3 mm) |
| O=CO [FA] | +++ (clearing zone of 5 mm (+++)) | +++ (clearing zone of 5 mm (+++)) | +++ (clearing zone of 5 mm (+++)) | +++ (clearing zone of 5 mm (+++)) | +++ (clearing zone of 5 mm (+++)) |  |  |  |  |  |  |  |  | +++ (clearing zone of 5 mm (+++)) | +++ (clearing zone of 5 mm (+++)) | +++ (clearing zone of 5 mm (+++)) |
